{PEG40k} = 40 kDa polyethylene glycol; [invdT] = inverted (3'-3') thymidine; [HEG] = hexaethylene glycol spacer
Experiments:
rat PDGF-BB = molecular target: T1, rat PDGF-BB (Rattus norvegicus, UniProt Q05028); experiment: Cell migration assay, 3T3 cells; assay type: cell-based; settings: 100 nM aptamer, 5 nM PDGF BB, 24 well format
T1 construct: purchased PeproTech, Rocky Hill, N.J
Procedure: PDGF is a strong mitogen as well as a chemoattractant. […] In the cell migration assay 80,000 cells 3T3 rat fibroblasts (ATCC, Manassas, Va.) or RPE (retinal pigmented epithelial) cells (ATCC, Manassas, Va.) were plated per well into a 24 well plate with 8 micron filters (BD Biosciences, Discovery Labware, Bedford, Mass.). 0.5 ml DMEM/0.2% FCS was added to the top chamber and 0.8 ml DMEM/0.2% FCS was added to the bottom chamber. The system was equilibrated by incubating for 4 hours at 37 degrees celsius. Human PDGF-BB (PeproTech, Rocky Hill, N.J.) (for RPE cells) or rat PDGF-BB (PeproTech) (for 3T3 cells) was added to the bottom chamber (0 ng/ml-100 ng/ml final concentration). The system was incubated 4 hours to 12 hours. Cells were scraped off on the top of filter with a Q-tip. The cells that migrated to the bottom of the filter were fixed with a mixture of cold 50% Methanol/50% Acetone for 3 minutes.
Following incubation filters were washed with 1×PBS and stained with Giemsa Stain (Matheson Coleman and Bell) for 1-2 hours and migration was visualized by taking pictures on a Zeiss Axiovert 200M microscope.

PDGF BB = PDGF BB (Homo sapiens, UniProt P01127); experiment: 3T3 cell proliferation assay (PDGF-BB induced); assay type: cell-based, rat; design: purchased PeproTech, Rocky Hill, N.J
Procedure: 3T3 cells, a rat fibroblast cell line (ATCC, Manassas, Va.), were plated 3,000 cells/well in a 96 well plate one day prior to the start of the assay in 100 ul DMEM/10% FCS. The following day, cells were washed once with straight DMEM and then 75 ul DMEM/0.8% FCS was added to each well. […] Cells were incubated for 3 days. Following incubation 10 ul MTT (Promega, Madison, Wis.) was added to each well and incubated for an additional 1.5 hours. Media was then removed, 200 ul Isopropanol (2-propanol) was added to each well, cells were re-suspended thoroughly and absorbance at 570 nm was read on a 96 well plate reader.
(§1) 3T3 cells, which are derived from a rat fibroblast cell line (ATCC, Manassas, Va.), were used in a proliferation assay to test potency of modified ARC513 aptamers. 3T3 fibroblast cells have PDGF receptors on their cell-surface and respond to mitogen, e.g., PDGF stimulation by proliferation. The assay was performed as follows: 3T3 cells were plated 3,000 cells/well in a 96 well plate one day prior to the start of the assay in 100 ul DMEM/10% FCS. The following day, cells were washed once with straight DMEM and then 75 ul DMEM/0.8% FCS was added to each well. Then 25 ul of PDGF-BB (PeproTech, Rocky Hill, N.J.) at a 50 ng/ml final concentration was added to each well +/− aptamer condition to be tested. […] The functional PDGF aptamer dilutions usually consisted of 6 points in 2-fold serial dilutions.
(§2) Cells were incubated for 3 days. Following incubation 10 ul MTT (Promega, Madison, Wis.) was added to each well and incubated for an additional 1.5 hours. Media was removed, 200 μl Isopropanol (2-propanol) was added to each well, cells were re-suspended thoroughly and absorbance at 570 nm was read on a 96 well plate reader. The present example depicts the potency comparison of PDGF aptamer ARC: 513 to that of ARC 513 variants.
The 3T3 proliferation assay previously described was used to test potency of all PEG conjugated ARC513 variants described immediately above. The assay was performed as follows: 3T3 cells were plated 3,000 cells/well in a 96 well plate one day prior to the start of the assay in 100 ul DMEM/10% FCS. The following day, cells were washed once with straight DMEM and then 75 ul DMEM/0.8% FCS was added to each well. Then 25 ul of PDGF-BB (PeproTech, Rocky Hill, N.J.) at a 50 ng/ml final concentration was added to each well +/− aptamer condition to be tested. […] The functional PDGF aptamer dilutions usually consisted of 6 points in 2-fold serial dilutions.
as §2, with “ARC513” for “ARC: 513”, “PEGylated ARC513 aptamers.” for “ARC 513 variants.”
as §1, with “3T3” for “3T3 cells, which are derived from a rat fibroblast cell line (ATCC, Manassas, Va.), were used in a proliferation assay to test potency of modified ARC513 aptamers. 3T3”, “100 μl” for “100 ul”
as §2, with “[…]” for “μl”, “reader.” for “reader. The present example depicts the potency comparison of PDGF aptamer ARC: 513 to that of ARC 513 variants.”

Sequence of PDGF BB (P01127 82-190 limits assumed): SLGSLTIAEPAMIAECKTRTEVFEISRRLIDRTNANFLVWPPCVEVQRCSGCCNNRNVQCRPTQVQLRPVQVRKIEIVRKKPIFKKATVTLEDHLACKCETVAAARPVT
T1 sequence (Q05028 66-174 limits assumed): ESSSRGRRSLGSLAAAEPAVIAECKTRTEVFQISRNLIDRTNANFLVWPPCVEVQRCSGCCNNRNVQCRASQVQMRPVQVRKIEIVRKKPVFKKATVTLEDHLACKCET

Substance | migration of 3T3 cells (rat PDGF-BB) | concentration reducing the PDGF driven increase in proliferation to background levels (PDGF BB) | potency compared to PDGF neutralizing polyclonal antibody (PDGF BB) | potency of legacy aptamers vs newly synthesized (PDGF BB; after lyophilization and storage at −20 degrees celsius for 2 years) | effect of 5′ conjugation to 30 kDa and 40 kDa PEG groups on in vitro activity (PDGF BB; relative to ARC126) | effect on 3T3 cell proliferation (PDGF BB; scrambled control)
5′-[40 K PEG]-(SEQ ID NO:1)-HEG-(SEQ ID NO:2)-HEG-(SEQ ID NO:3)-3′-dT-3′ (chain 1 CAGGCUACG; chain 2 CGTAGAGCAUCA; chain 3 TGATCCUG; piece 1: 2'-fluoro at 6, 8, 2'-O-methyl at 9, 5' {PEG40k}, 3' [HEG], other sugars and backbone not given here; piece 2: 2'-O-methyl at 5, 7, 12, 2'-fluoro at 10, 11, 3' [HEG], other sugars and backbone not given here; piece 3: 2'-fluoro at 5, 6, 7, 2'-O-methyl at 8, 3' [invdT], other sugars and backbone not given here) [ARC127] | inhibits the effects of 5 nM PDGF-BB | 30 nM | better potency | just as potent | does not significantly reduce the in vitro activity | 
5′-(SEQ ID NO.4)-HEG-(SEQ ID NO:5)-HEG-(SEQ ID NO:6)-3 (chain 1 CAGCGUACG; chain 2 CGTACCGATUCA; chain 3 TGAAGCUG; HEG spacers joining pieces; synthetic aptamer; modified_base (4)..(4) cytidine is 2′-fluoro; modified_base (5)..(5) gm; modified_base (6)..(6) uridine is 2′-fluoro; modified_base (8)..(8) cytidine is 2′-fluoro; modified_base (9)..(9) gm; modified_base (7)..(7) gm; modified_base (10)..(10) uridine is 2′-fluoro; modified_base (11)..(11) cytidine is 2′-fluoro; modified_base (12)..(12) adenosine is 2′-O-Methyl; modified_base (6)..(6) cytidine is 2′-fluoro; modified_base (7)..(7) uridine is 2′-fluoro; modified_base (8)..(8) gm) [ARC128, reference compound] | no activity |  |  |  |  | never displays an effect
